Tests used:
HaCaT keratinocytes = test system: HaCaT keratinocytes; set-up: cytoprotection against 1O2-induced oxidative stress: dose or concentration left out as unconfirmed; settings: HaCaT
Protocol: Photodynamic induction of intracellular oxidative stress and its suppression by bixin pretreatment was analyzed by flow cytometry using 2′,7′-dichlorodihydrofluorescein diacetate (DCFH-DA) as a sensitive non-fluorescent precursor dye according to a published standard procedure [14]. HaCaT keratinocytes were pretreated with bixin (1 or 24 h) and then exposed to singlet oxygen generated by dye-sensitization as described earlier [14, 44]. In brief, toluidine blue 0 (TB) photosensitization was achieved using a ‘Sylvania 15 W Cool White’ light tube delivering visible light at an irradiance of 4.29 mW/cm^2. The irradiance in the visible region (400-700 nm) was determined using a spectroradiometer, Model 754 from Optronic Laboratories (Orlando, Fla.). Cells received visible radiation at a distance of 50 mm from the source through the polystyrene lids of cell culture dishes. For ^1O2 exposure, cells were washed with PBS and immediately exposed to the combined action of visible light (0.3 J/cm^2) and TB (3.3 μM) in PBS. Following 5 min incubation in the dark after irradiation, cells were washed with PBS. Cells were then incubated for 60 min in the dark (37° C., 5% CO2) with culture medium containing DCFH-DA (5 μg/mL final concentration). Cells were then washed with PBS, harvested by trypsinization, resuspended in 300 μl PBS, and analyzed by flow cytometry.

[1] = target: T1, KEAP1 wild type (KEAP1-WT) (Homo sapiens, UniProt Q14145); type: cell-based; settings: SF 5 μM, As 5 μM, bixin 40 μM; 16 h
T1 construct: expressed in transfected cells; host or cells: HaCaT human keratinocytes
Text: (§1) Since it has been shown previously that NRF2 activation by canonical inducers (including SF and tBHQ) depends on C (Cys)-151, a critical cysteine residue in KEAP1, the mechanistic involvement of KEAP1-C151 bixin-based NRF2 activation was examined. HaCaT cells were cotransfected with expression vectors for either KEAP1 wild type (KEAP1-WT) or a mutant KEAP1 (KEAP1-C151S; Cys-151 mutated to serine) along with ARE-firefly luciferase and Renilla luciferase reporters to assess NRF2 transcriptional activity (FIG. 3G). After exposure to SF (5 μM), As (sodium arsenite; 5 μM), or bixin (40 μM; all 16 h), NRF2 transcriptional activity was enhanced by all treatments in KEAP1-WT cells, whereas NRF2 activation by SF or bixin was abolished in KEAP1-C151S cells.
(§2) Transfection of cDNA was performed using Lipofectamine 3000 (Invitrogen) according to the manufacturer's instructions. Activation of NRF2 transcriptional activity was performed as previously published. Briefly, HaCaT cells were cotransfected with expression vectors for either KEAP1 wild type (KEAP1-WT) or KEAP1 with a mutation that generates a protein that contains a serine residue instead of a cysteine (KEAP1-C151S), along with NQO1-ARE firefly luciferase and Renilla luciferase reporters. At 24 h post-transfection, cells were left untreated or treated with SF (5 μM), As (5 μM), or bixin (40 μM) for 16 h. The cells were then lysed for analysis of the reporter gene activity using the Promega dual-luciferase reporter gene assay system.

KEAP1-C151S = target: T2, KEAP1-C151S (Homo sapiens, UniProt Q14145, C151S); type: cell-based; settings: SF 5 μM, As 5 μM, bixin 40 μM; 16 h
T2 construct: expressed in transfected cells; host or cells: HaCaT human keratinocytes
T2 sequence (Q14145 whole entry C151S): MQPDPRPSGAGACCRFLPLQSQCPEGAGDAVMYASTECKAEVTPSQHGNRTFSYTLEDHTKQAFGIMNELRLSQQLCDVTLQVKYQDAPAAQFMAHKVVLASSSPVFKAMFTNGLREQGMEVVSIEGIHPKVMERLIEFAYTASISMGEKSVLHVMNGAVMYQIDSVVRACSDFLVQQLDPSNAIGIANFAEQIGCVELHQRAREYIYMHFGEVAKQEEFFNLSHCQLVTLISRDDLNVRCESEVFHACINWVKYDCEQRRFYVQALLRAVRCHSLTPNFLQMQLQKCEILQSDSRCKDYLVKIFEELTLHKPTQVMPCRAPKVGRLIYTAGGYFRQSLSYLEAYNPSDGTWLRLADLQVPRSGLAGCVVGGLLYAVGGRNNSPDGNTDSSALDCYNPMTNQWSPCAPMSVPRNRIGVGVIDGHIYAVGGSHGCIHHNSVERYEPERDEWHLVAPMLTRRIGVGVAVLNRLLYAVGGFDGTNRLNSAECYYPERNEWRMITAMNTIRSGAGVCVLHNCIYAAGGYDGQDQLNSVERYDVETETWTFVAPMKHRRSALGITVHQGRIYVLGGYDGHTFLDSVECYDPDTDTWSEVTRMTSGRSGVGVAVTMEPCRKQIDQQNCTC
Text: as §1, §2

NRF2 = assay: Cell-based NRF2 ubiquitination assay; set-up: species or system human; settings: HaCaT, bixin 40 μM or SF 5 μM with MG132 10 μM, 4 h
Protocol: In order to test if bixin-based NRF2 activation occurs through inhibition of KEAP1-mediated ubiquitination, a cell-based ubiquitination assay was performed in HaCaT cells cotransfected with expression vectors for NRF2 and HA-tagged ubiquitin (HA-Ub) (FIG. 3F). To this end, cells were either exposed to bixin (40 μM) or sulforaphane (SF; 5 μM, positive control) or left untreated, combined with proteasome inhibition (MG132; 10 μM, 4 h).
Experiments were performed according to previously published procedures. Cells were harvested in sample buffer (50 mM Tris-HCl [pH 6.8], 2% sodium dodecyl sulfate (SDS), 10% glycerol, 100 mM dithiothreitol (DTT), and 0.1% bromophenol blue), boiled and sonicated. Total cell lysates were resolved by SDS-PAGE and subjected to immunoblot analyses with the indicated antibodies. For the ubiquitination assay, cells were cotransfected with expression vectors for NRF2 and HA-tagged ubiquitin (HA-Ub). Cells were left untreated or treated with either 5 μM sulforaphane (SF) or 40 μM bixin along with 10 μM MG132 for 4 h. Cells were harvested in buffer containing 2% SDS, 150 mM NaCl, 10 mM Tris-HCl (pH 8.0), and 1 mM DTT and boiled immediately. […] The relative intensity of the bands was quantified using the ChemiDoc CRS gel documentation system and Quantity One software (BioRad).

T1 sequence (Q14145 whole entry, species assumed): as the sequence (Q14145 whole entry C151S) above, with S151C counted along it

In the case of `[N-]=[N+]=[N-].[Na+]` [NaN3, reference compound], the “cytoprotection against 1O2-induced oxidative stress” value (HaCaT keratinocytes) is reported as “active only if present during visible light-driven dye sensitization”.

In the case of `O=[As]O` [As, sodium arsenite], the “NRF2 transcriptional activity in KEAP1-WT cells” value [1] is reported as “enhanced” and the “NRF2 activation in KEAP1-C151S cells” value (KEAP1-C151S) is reported as “equally effective”.

With `C[S+]([O-])CCCCN=C=S` (stereo not drawn) [SF, sulforaphane] the “NRF2 transcriptional activity in KEAP1-WT cells” value [1] was “enhanced”, the “NRF2 activation in KEAP1-C151S cells” value (KEAP1-C151S) was “abolished” and the “NRF2-ubiquitination versus untreated control” value (NRF2) was “inhibitory effects”.

Reference: patent US20180243190A1, “ACTIVATORS OF NRF2-DEPENDENT PHOTOPROTECTION AND RELATED USES THEREOF” (THE ARIZONA BOARD OF REGENTS ON BEHALF OF THE UNIVERSITY OF …, priority 2015, published 2018)
